Assay: wn = mass fraction of the nth substance listed
Conditions: Liquid, Vibrating tube method

CC(C)(N)CO [2-amino-2-methylpropan-1-ol] + O
Conditions	mass density [kg/m3]
313.13 K, 500 kPa, w1 = 0.1997	989.5
313.13 K, 995 kPa, w1 = 0.2821	988.9
313.13 K, 998 kPa, w1 = 0.4002	985.4
313.13 K, 999 kPa, w1 = 0.4976	978.1
313.13 K, 1000 kPa, w1 = 0.1997	989.8
313.13 K, 2000 kPa, w1 = 0.1997	990.1
313.13 K, 2002 kPa, w1 = 0.2821	989.2
313.13 K, 2006 kPa, w1 = 0.4002	985.8
313.13 K, 2014 kPa, w1 = 0.4976	978.5
313.13 K, 2993 kPa, w1 = 0.2821	989.6
313.13 K, 2995 kPa, w1 = 0.4002	986.2
313.13 K, 3000 kPa, w1 = 0.1997	990.5
313.13 K, 3001 kPa, w1 = 0.4976	978.9
313.13 K, 3995 kPa, w1 = 0.4002	986.6
313.13 K, 4000 kPa, w1 = 0.1997	990.9
313.13 K, 4001 kPa, w1 = 0.2821	990
313.13 K, 4001 kPa, w1 = 0.4976	979.3
313.13 K, 4995 kPa, w1 = 0.2821	990.4
313.13 K, 4999 kPa, w1 = 0.4002	986.9
313.13 K, 4999 kPa, w1 = 0.4976	979.7
313.13 K, 5000 kPa, w1 = 0.1997	991.2
313.13 K, 5999 kPa, w1 = 0.4002	987.3
313.13 K, 6000 kPa, w1 = 0.1997	991.6
313.13 K, 6000 kPa, w1 = 0.4976	980.2
313.13 K, 6005 kPa, w1 = 0.2821	990.8
313.13 K, 6987 kPa, w1 = 0.2821	991.1
313.13 K, 6994 kPa, w1 = 0.4002	987.7
313.13 K, 6995 kPa, w1 = 0.4976	980.6
313.13 K, 7000 kPa, w1 = 0.1997	992
313.13 K, 7986 kPa, w1 = 0.4002	988.1
313.13 K, 7991 kPa, w1 = 0.2821	991.5
313.13 K, 8000 kPa, w1 = 0.1997	992.4
313.13 K, 8003 kPa, w1 = 0.4976	980.9
313.13 K, 8992 kPa, w1 = 0.4002	988.5
313.13 K, 8997 kPa, w1 = 0.2821	991.9
313.13 K, 8997 kPa, w1 = 0.4976	981.4
313.13 K, 9007 kPa, w1 = 0.1997	992.8
313.13 K, 9992 kPa, w1 = 0.4002	988.9
313.13 K, 9995 kPa, w1 = 0.2821	992.3
313.13 K, 9999 kPa, w1 = 0.4976	981.8
313.13 K, 10002 kPa, w1 = 0.1997	993.2
313.13 K, 10989 kPa, w1 = 0.4976	982.1
313.13 K, 10990 kPa, w1 = 0.2821	992.6
313.13 K, 10993 kPa, w1 = 0.4002	989.2
313.13 K, 11000 kPa, w1 = 0.1997	993.6
313.13 K, 11991 kPa, w1 = 0.2821	993
313.13 K, 11992 kPa, w1 = 0.4002	989.6
313.13 K, 11996 kPa, w1 = 0.4976	982.6
313.13 K, 12000 kPa, w1 = 0.1997	994
313.13 K, 12982 kPa, w1 = 0.2821	993.4
313.13 K, 13000 kPa, w1 = 0.1997	994.4
313.13 K, 13002 kPa, w1 = 0.4002	990
313.13 K, 13006 kPa, w1 = 0.4976	983
313.13 K, 13991 kPa, w1 = 0.2821	993.8
313.13 K, 13999 kPa, w1 = 0.4002	990.4
313.13 K, 14000 kPa, w1 = 0.1997	994.7
313.13 K, 14001 kPa, w1 = 0.4976	983.4
313.13 K, 14997 kPa, w1 = 0.2821	994.2
313.13 K, 14999 kPa, w1 = 0.4002	990.8
313.13 K, 15001 kPa, w1 = 0.4976	983.8
313.13 K, 15002 kPa, w1 = 0.1997	995.1
313.13 K, 15990 kPa, w1 = 0.2821	994.5
313.13 K, 15992 kPa, w1 = 0.4002	991.2
313.13 K, 15992 kPa, w1 = 0.4976	984.2
313.13 K, 16000 kPa, w1 = 0.1997	995.5
313.13 K, 16989 kPa, w1 = 0.2821	994.9
313.13 K, 16992 kPa, w1 = 0.4976	984.6
313.13 K, 16994 kPa, w1 = 0.4002	991.5
313.13 K, 17001 kPa, w1 = 0.1997	995.9
313.13 K, 17985 kPa, w1 = 0.4976	985
313.13 K, 17988 kPa, w1 = 0.2821	995.3
313.13 K, 17989 kPa, w1 = 0.4002	991.9
313.13 K, 18002 kPa, w1 = 0.1997	996.3
313.13 K, 18987 kPa, w1 = 0.2821	995.6
313.13 K, 18990 kPa, w1 = 0.4002	992.3
313.13 K, 18990 kPa, w1 = 0.4976	985.4
313.13 K, 19000 kPa, w1 = 0.1997	996.7
313.13 K, 19992 kPa, w1 = 0.4002	992.7
313.13 K, 19992 kPa, w1 = 0.4976	985.8
313.13 K, 19996 kPa, w1 = 0.2821	996
313.13 K, 20030 kPa, w1 = 0.1997	997.1
313.13 K, 20495 kPa, w1 = 0.4976	986
313.13 K, 20691 kPa, w1 = 0.4002	993
313.13 K, 20955 kPa, w1 = 0.2821	996.4
313.13 K, 21004 kPa, w1 = 0.1997	997.4
313.13 K, 22004 kPa, w1 = 0.1997	997.8
313.13 K, 23000 kPa, w1 = 0.1997	998.2
313.13 K, 24004 kPa, w1 = 0.1997	998.5
323.08 K, 1026 kPa, w1 = 0.2821	982.8
323.08 K, 2026 kPa, w1 = 0.2821	983.2
323.08 K, 2996 kPa, w1 = 0.2821	983.5
323.08 K, 4009 kPa, w1 = 0.2821	983.9
323.08 K, 5006 kPa, w1 = 0.2821	984.3
323.08 K, 6002 kPa, w1 = 0.2821	984.7
323.08 K, 6993 kPa, w1 = 0.2821	985.1
323.08 K, 7994 kPa, w1 = 0.2821	985.5
323.08 K, 9012 kPa, w1 = 0.2821	985.9
323.08 K, 9998 kPa, w1 = 0.2821	986.3
323.08 K, 11009 kPa, w1 = 0.2821	986.6
323.08 K, 11995 kPa, w1 = 0.2821	987
323.08 K, 12991 kPa, w1 = 0.2821	987.4
323.08 K, 14001 kPa, w1 = 0.2821	987.8
323.08 K, 14989 kPa, w1 = 0.2821	988.2
323.08 K, 15999 kPa, w1 = 0.2821	988.5
323.08 K, 16987 kPa, w1 = 0.2821	988.9
323.08 K, 17980 kPa, w1 = 0.2821	989.3
323.08 K, 18996 kPa, w1 = 0.2821	989.7
323.08 K, 19986 kPa, w1 = 0.2821	990.1
323.08 K, 20987 kPa, w1 = 0.2821	990.4
323.09 K, 1002 kPa, w1 = 0.4976	970.1
323.09 K, 1995 kPa, w1 = 0.4976	970.5
323.09 K, 3001 kPa, w1 = 0.4976	971
323.09 K, 4009 kPa, w1 = 0.4976	971.4
323.09 K, 5001 kPa, w1 = 0.4976	971.8
323.09 K, 5995 kPa, w1 = 0.4976	972.2
323.09 K, 7011 kPa, w1 = 0.4976	972.6
323.09 K, 7990 kPa, w1 = 0.4976	973
323.09 K, 9002 kPa, w1 = 0.4976	973.5
323.09 K, 9974 kPa, w1 = 0.4976	973.9
323.09 K, 10992 kPa, w1 = 0.4976	974.3
323.09 K, 11993 kPa, w1 = 0.4976	974.7
323.09 K, 12991 kPa, w1 = 0.4976	975.1
323.09 K, 13986 kPa, w1 = 0.4976	975.6
323.09 K, 14991 kPa, w1 = 0.4976	976
323.09 K, 15999 kPa, w1 = 0.4976	976.4
323.09 K, 16994 kPa, w1 = 0.4976	976.8
323.09 K, 18003 kPa, w1 = 0.4976	977.2
323.09 K, 18986 kPa, w1 = 0.4976	977.6
